Test system: db/db mice
Assay: Evaluation of glucose levels in db/db mice
Format: in vivo
Details: 30 mg/kg oral gavage daily for 7 days; 100% = glucose not differing from lean values
Procedure: Five week old male diabetic (db/db) mice [C57BlKs/j-m +/+ Lepr(db), Jackson Laboratory, Bar Harbor, Me.] or lean littermates (DB/?) were housed 6 per cage (10″20″8″ with aspen chip bedding) with food (Purina 5015) and water available at all times. After an acclimation period of 2 weeks, animals were individually identified by ear notches, weighed, and bled via the tail vein for determination of initial glucose levels. Blood was collected (100 μl) from unfasted animals by wrapping each mouse in a towel, cutting the tip of the tail with a scalpel, and milking blood from the tail into a heparinized capillary tube (Fisher) balanced on the edge of the bench. Sample was discharged into a heparinized microtainer with gel separator (VWR) and retained on ice. Plasma was obtained after centrifugation at 4° C. and glucose measured immediately. Remaining plasma was frozen until the completion of the experiment, when glucose and triglycerides were assayed in all samples. […]
Glucose was measured colorimetrically using commercially purchased reagents (Sigma #315-500). […] The absorbance of the dye produced is linearly related to the analyte in the sample. […] Standards (Sigma #339-11, Sigma #16-11, and Sigma #CC0534 for glucose, triglycerides and total cholesterol, respectively), quality control plasma (Sigma # A2034), and samples (2 or 5 μl/well) were measured in duplicate using 200 μl of reagent. […]

Structure (SMILES): Cc1oc(-c2cccc(-c3ccc(F)cc3)c2)nc1CCOc1ccc(CC(C)(Oc2ccccc2)C(=O)O)cc1 (stereo not shown) [Example 4, 3-(4-{2-[2-(4′-Fluorobiphenyl-3-yl)-5-methyloxazol-4-yl]ethoxy}phenyl)-2-methyl-2-phenoxypropionic acid]
- Glucose Normalisation: 91%

Source: US7176224B2, “Oxazolyl-aryloxyacetic acid derivatives and their use as PPAR agonists” (Eli Lilly and Company, priority 2000, dated 2007)
